The text below walks through data of ChEMBL document CHEMBL4507319 (2021).

Holding throughout (conditions): Compound concentration 1000.0 nM
Assay [1] deals with Phosphatidylinositol 4,5-bisphosphate 3-kinase catalytic subunit delta isoform (Homo sapiens) (UniProt O00329).
Assay [2] deals with Activin receptor type-2B (Homo sapiens) (UniProt Q13705).
In assay [3] the target is T1, Discoidin domain-containing receptor 2 (Homo sapiens) (UniProt Q16832).
T1 sequence (whole entry): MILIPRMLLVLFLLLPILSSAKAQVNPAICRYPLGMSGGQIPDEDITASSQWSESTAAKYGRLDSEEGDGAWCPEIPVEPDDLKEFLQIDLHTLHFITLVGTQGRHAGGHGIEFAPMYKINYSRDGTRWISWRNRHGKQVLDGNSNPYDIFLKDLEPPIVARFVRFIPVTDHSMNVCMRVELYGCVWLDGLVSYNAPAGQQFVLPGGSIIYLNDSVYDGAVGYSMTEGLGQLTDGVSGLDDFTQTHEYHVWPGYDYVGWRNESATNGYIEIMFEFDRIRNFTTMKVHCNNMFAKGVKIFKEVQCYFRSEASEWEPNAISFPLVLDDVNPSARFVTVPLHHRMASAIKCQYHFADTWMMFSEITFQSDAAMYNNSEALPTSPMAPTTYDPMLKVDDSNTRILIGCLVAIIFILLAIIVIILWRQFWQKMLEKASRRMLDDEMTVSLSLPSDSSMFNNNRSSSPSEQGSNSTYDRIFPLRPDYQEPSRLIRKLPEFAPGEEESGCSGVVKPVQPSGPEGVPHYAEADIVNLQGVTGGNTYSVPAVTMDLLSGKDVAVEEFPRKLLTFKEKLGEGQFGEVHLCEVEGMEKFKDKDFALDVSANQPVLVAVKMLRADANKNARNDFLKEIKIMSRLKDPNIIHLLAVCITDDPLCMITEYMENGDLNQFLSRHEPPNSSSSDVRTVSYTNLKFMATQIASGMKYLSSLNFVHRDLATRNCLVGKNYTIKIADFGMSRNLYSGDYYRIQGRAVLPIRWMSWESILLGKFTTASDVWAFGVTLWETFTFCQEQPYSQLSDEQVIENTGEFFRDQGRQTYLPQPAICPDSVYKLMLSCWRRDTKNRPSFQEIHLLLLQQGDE

The target in assay [4] is Wee1-like protein kinase 2 (Homo sapiens) (UniProt P0C1S8).
Sequence of Wee1-like protein kinase 2 (Homo sapiens) (P0C1S8 whole entry, looked up): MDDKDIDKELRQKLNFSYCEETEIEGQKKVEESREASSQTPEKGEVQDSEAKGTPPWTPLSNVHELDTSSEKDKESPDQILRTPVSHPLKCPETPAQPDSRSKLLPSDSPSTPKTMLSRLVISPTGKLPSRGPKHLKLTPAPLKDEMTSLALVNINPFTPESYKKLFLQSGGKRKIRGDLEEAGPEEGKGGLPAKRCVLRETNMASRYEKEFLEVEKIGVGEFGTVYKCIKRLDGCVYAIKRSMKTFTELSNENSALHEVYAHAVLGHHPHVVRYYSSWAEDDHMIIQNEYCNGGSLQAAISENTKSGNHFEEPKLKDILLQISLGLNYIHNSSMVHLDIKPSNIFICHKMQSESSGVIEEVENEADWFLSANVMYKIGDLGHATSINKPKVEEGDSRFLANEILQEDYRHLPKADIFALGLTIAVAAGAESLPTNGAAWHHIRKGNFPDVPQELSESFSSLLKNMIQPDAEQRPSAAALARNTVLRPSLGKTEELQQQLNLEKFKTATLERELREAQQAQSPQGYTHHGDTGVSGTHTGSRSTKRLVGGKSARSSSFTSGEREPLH
Assay [5] has as its target Serine/threonine-protein kinase pim-1 (Homo sapiens) (UniProt P11309).
In assay [6] the target is Ribosomal protein S6 kinase alpha-1 (Homo sapiens, UniProt Q15418).
Assay [7] addresses Ribosomal protein S6 kinase alpha-2 (Homo sapiens, UniProt Q15349).
Assay [8] addresses Serine/threonine-protein kinase PLK4 (Homo sapiens) (UniProt O00444).
For assay [9], the system named is ALK tyrosine kinase receptor (Homo sapiens), Q9UM73 [C1156Y].
For assay [10], the target named is T2, Tyrosine-protein kinase JAK3 (Homo sapiens) (UniProt P52333).
T2 sequence (whole entry): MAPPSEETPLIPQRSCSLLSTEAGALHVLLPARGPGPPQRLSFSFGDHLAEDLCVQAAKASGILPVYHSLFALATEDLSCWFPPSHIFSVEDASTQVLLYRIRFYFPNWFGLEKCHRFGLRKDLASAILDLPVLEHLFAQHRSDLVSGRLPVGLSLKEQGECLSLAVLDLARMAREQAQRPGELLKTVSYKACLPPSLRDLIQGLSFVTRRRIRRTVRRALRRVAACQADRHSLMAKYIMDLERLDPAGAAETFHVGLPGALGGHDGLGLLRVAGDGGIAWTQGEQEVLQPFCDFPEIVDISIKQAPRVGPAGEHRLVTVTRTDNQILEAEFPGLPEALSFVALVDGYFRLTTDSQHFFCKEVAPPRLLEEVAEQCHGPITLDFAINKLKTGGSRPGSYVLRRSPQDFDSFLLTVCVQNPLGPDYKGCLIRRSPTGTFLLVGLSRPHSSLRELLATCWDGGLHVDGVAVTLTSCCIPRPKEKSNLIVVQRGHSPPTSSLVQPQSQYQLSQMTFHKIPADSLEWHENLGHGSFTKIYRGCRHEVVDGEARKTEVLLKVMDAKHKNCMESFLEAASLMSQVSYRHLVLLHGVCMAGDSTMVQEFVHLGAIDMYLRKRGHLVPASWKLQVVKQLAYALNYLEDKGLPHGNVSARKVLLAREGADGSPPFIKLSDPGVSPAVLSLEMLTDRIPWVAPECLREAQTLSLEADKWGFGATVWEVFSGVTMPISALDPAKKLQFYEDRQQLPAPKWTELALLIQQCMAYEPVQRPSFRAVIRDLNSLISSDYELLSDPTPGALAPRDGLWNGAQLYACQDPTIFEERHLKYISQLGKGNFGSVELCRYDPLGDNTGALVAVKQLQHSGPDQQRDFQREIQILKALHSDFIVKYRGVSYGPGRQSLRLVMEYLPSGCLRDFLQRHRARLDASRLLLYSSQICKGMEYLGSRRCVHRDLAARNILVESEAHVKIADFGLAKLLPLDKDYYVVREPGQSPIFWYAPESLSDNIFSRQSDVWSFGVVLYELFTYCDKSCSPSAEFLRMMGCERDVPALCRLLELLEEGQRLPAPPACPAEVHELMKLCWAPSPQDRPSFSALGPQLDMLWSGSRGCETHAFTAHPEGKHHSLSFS

Assay [11] addresses Mitogen-activated protein kinase kinase kinase 4 (Homo sapiens) (UniProt Q9Y6R4).
The target in assay [12] is Tyrosine-protein kinase FRK (Homo sapiens) (UniProt P42685).
Sequence of Tyrosine-protein kinase FRK (Homo sapiens) (P42685 whole entry): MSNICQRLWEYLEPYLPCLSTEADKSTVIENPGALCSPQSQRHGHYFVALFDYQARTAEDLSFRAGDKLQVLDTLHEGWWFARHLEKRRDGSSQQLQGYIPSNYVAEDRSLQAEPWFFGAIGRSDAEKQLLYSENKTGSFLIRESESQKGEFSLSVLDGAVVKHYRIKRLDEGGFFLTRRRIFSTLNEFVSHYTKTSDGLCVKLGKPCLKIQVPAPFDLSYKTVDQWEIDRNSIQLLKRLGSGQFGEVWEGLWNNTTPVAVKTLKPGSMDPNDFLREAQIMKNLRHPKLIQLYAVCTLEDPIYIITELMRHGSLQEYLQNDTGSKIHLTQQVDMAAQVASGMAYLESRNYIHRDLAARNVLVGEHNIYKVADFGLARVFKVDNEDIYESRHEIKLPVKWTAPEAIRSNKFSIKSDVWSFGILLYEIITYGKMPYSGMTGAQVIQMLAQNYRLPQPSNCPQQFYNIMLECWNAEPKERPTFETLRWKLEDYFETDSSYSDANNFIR
Assay [13] deals with Dual specificity protein kinase CLK3 (Homo sapiens) (UniProt P49761).
Sequence of Dual specificity protein kinase CLK3 (Homo sapiens) (P49761 whole entry, looked up): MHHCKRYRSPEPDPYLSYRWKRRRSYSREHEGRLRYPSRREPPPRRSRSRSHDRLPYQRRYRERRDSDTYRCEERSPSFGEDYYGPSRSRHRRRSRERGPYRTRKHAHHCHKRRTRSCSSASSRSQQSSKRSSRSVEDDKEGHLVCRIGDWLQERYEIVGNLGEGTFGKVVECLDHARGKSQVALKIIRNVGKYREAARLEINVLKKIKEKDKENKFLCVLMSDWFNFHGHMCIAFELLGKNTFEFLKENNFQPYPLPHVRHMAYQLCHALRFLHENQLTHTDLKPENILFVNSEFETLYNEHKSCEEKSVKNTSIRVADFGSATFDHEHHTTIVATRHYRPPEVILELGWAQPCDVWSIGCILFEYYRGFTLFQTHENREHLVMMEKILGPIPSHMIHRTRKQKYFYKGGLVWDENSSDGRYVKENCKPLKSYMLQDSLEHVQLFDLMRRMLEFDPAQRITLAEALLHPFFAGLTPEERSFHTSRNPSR
For assay [14], the target named is Dual specificity protein kinase CLK4 (Homo sapiens) (UniProt Q9HAZ1).
In assay [15] the target is RAC-alpha serine/threonine-protein kinase (Homo sapiens) (UniProt P31749).
Assay [16] addresses RAF proto-oncogene serine/threonine-protein kinase (Homo sapiens) (UniProt P04049).
For assay [17], the system named is Leucine-rich repeat serine/threonine-protein kinase 2 (Homo sapiens), Q5S007 [G2019S].
Assay [18] concerns the target 5'-AMP-activated protein kinase catalytic subunit alpha-2 (Homo sapiens, UniProt P54646).

Sequence of RAF proto-oncogene serine/threonine-protein kinase (Homo sapiens) (P04049 whole entry): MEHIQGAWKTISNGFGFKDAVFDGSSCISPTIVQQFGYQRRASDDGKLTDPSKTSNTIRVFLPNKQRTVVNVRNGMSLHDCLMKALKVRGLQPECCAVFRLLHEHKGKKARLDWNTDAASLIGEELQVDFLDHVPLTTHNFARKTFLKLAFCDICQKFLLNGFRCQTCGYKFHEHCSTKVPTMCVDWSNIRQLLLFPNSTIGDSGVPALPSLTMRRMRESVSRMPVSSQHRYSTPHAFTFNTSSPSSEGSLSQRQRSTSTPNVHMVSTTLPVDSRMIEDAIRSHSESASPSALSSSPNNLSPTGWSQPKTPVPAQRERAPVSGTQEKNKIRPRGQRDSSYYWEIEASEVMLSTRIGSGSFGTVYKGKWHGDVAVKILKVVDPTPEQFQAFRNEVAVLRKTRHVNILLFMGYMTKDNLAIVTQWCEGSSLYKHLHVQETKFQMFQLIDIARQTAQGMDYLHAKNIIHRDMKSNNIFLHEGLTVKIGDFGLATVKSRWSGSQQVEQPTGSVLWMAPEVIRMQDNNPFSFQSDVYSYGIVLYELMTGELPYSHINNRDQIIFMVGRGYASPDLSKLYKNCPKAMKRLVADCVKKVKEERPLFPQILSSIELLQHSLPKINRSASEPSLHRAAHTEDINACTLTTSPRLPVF
Sequence of Phosphatidylinositol 4,5-bisphosphate 3-kinase catalytic subunit delta isoform (Homo sapiens) (O00329 whole entry, canonical isoform): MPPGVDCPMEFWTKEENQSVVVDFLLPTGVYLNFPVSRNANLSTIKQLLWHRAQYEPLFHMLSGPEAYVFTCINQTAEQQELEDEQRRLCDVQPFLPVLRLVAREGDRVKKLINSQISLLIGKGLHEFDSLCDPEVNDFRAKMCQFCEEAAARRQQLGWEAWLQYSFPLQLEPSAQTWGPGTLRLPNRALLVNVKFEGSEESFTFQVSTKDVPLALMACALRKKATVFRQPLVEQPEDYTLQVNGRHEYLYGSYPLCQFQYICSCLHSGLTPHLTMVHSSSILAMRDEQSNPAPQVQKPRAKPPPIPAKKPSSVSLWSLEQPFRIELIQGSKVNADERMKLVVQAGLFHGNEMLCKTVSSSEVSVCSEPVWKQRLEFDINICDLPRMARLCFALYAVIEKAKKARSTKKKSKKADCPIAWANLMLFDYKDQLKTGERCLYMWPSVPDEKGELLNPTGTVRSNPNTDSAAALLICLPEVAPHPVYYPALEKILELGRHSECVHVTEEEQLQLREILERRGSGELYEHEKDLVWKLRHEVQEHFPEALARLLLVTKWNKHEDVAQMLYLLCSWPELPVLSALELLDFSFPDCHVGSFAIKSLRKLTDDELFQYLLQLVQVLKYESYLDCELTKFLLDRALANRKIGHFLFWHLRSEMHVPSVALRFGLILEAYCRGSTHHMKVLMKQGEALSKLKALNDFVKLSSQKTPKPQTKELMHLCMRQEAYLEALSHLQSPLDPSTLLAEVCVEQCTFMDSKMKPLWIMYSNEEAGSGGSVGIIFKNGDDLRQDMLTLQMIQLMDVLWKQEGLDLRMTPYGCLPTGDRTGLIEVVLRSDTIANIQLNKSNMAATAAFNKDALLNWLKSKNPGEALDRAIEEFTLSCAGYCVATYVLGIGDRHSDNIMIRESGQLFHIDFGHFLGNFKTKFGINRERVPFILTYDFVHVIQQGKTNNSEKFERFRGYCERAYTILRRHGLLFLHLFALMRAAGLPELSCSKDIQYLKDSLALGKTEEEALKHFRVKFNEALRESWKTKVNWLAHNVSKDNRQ
Sequence of Mitogen-activated protein kinase kinase kinase 4 (Homo sapiens) (Q9Y6R4 whole entry): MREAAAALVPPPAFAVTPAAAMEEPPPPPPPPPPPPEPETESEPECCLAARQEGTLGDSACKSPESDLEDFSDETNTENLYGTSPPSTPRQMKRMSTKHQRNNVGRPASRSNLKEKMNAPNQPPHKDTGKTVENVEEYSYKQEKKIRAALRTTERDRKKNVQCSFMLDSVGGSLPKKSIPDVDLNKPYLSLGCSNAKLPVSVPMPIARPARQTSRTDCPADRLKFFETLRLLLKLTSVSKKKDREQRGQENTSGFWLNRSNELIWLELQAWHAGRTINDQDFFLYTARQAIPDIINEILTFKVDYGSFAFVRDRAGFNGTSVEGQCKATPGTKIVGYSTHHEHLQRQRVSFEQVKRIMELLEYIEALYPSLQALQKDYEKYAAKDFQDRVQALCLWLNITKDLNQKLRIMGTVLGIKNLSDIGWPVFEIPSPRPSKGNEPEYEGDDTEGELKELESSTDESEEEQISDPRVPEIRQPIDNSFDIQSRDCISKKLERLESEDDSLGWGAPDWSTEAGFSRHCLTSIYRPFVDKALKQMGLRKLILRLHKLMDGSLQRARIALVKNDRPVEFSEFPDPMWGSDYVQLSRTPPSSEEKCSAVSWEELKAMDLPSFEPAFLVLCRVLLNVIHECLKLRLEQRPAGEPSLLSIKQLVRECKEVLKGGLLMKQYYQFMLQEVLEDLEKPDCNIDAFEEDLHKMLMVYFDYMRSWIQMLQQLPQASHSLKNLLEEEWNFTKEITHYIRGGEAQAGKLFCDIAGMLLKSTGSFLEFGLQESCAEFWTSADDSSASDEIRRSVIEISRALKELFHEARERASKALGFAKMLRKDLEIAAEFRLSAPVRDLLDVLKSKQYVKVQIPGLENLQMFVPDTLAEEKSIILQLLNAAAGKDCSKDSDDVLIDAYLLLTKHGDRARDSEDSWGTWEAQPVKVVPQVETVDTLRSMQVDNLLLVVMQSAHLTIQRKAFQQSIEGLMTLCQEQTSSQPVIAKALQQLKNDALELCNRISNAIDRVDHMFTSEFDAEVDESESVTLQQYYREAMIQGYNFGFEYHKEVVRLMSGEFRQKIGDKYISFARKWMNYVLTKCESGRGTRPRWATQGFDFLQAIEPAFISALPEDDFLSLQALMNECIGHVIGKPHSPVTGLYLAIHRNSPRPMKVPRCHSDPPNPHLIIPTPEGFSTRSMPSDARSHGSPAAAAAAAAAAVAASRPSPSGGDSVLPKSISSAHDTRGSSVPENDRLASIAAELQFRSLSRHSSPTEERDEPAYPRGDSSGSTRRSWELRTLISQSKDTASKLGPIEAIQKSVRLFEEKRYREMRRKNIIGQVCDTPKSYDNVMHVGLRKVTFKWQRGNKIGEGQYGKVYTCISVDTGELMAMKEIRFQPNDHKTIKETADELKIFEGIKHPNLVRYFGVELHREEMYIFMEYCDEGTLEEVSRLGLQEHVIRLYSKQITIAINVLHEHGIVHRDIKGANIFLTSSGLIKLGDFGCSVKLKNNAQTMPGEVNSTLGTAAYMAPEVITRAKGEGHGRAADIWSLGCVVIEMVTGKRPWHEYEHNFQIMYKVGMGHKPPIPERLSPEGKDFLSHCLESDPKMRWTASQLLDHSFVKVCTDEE

For the compound `CC1=C(C#N)C(c2ccc3c(c2)c(NC(=O)c2ccccc2C)nn3C)C(C#N)=C(C)N1` [BAY-974], the residual activity in assay [1] was 71%; in assay [2], 100%; in [3] it was 86%; in [4], 100%; in [5], 100%; in [6], 100%. In addition, the residual activity was 94% in [7]; 100% in [8]; 96% in [9]; 83% in assay [10]; 84% in assay [11]; 100% in assay [12]. Also, the residual activity in assay [13] was 94%; in assay [14], 76%; in assay [15], 94%; in [16], 100%; in assay [17], 100%; in assay [18], 99%.

On to `CCc1ccccc1C(=O)Nc1n[nH]c2c(C)c(F)c(C3C(C#N)=C(C)N(C)C(C)=C3C#N)cc12` [BAY-3827], for which the residual activity in [1] is 90%; in assay [2], 99%; in assay [3], 100%; in assay [4], 82%; in assay [5], 100%; in assay [6], 100%. Further, the residual activity in assay [7] is 100%; in assay [8], 100%; in [9], 100%; in assay [10] it was 79%; in assay [11], 72%; in assay [12], 100%. In addition, the residual activity in [13] was 100%; in assay [14], 100%; in assay [15], 75%; in assay [16] it was 63%; in assay [17], 100%; in [18], 0%.
